Laboratory results as given in patent US20170112732A1, “ENCAPSULATION OF ORAL CARE ACTIVE AGENTS” (KONINKLIJKE PHILIPS N.V., priority 2014, published 2017).
Structures can show the parent of a compound that is named as a salt.

Assay: Determination of ethyl formate solubility in paraffin oil (GC-FID)
Assay type: physicochemical
Method: 12 mL of ethyl formate (0.917 g/cm^3) were added to 18 mL of liquid paraffin (density, 0.830 g/cm^3) in a glass bottle. The bottle was then closed with butyl rubber stopper and aluminium crimp seal and seal with a hand crimper before vigorously mixing the system with a vortex for 2 min. The bottle containing the mixture was immersed in a temperature-controlled jacketed beaker for 24 h and to allow the formation of two distinct layers, an upper layer consisting of ethyl formate and Liquid paraffin and the lower layer with only ethyl formate. Samples were withdrawn from the upper layer with a needle, filtered and analysed using a gas chromatography with flame ionisation detector (GC-FID) under the conditions presented in table 2. The quantity of ethyl formate in the mixture was inferred from the calibration curve obtained with different concentration of ethyl formate diluted with anhydrous ethanol.

CCOC=O [Ethyl formate, ethyl formate]
Ethyl formate solubility in liquid paraffin (5 ° C.): 13.4 % v/v
Ethyl formate solubility in liquid paraffin (10 ° C.): 16.3 % v/v
Ethyl formate solubility in liquid paraffin (20 ° C.): 26.8 % v/v
Ethyl formate solubility in liquid paraffin (30 ° C.): 38.9 % v/v
